The numbers were not newly measured in PMC9851200, “Multiparameter phenotypic screening for endogenous TFEB and TFE3 translocation identifies novel chemical series modulating lysosome function” (Autophagy, 2022), which cites them from elsewhere.

Common to all, as to set-up: method as in original PKIS2 published data
In data set [1] the target is T1, kinases (KINOMEscan panel) (Homo sapiens, UniProt O15197).
T1 sequence (O15197 32-1021): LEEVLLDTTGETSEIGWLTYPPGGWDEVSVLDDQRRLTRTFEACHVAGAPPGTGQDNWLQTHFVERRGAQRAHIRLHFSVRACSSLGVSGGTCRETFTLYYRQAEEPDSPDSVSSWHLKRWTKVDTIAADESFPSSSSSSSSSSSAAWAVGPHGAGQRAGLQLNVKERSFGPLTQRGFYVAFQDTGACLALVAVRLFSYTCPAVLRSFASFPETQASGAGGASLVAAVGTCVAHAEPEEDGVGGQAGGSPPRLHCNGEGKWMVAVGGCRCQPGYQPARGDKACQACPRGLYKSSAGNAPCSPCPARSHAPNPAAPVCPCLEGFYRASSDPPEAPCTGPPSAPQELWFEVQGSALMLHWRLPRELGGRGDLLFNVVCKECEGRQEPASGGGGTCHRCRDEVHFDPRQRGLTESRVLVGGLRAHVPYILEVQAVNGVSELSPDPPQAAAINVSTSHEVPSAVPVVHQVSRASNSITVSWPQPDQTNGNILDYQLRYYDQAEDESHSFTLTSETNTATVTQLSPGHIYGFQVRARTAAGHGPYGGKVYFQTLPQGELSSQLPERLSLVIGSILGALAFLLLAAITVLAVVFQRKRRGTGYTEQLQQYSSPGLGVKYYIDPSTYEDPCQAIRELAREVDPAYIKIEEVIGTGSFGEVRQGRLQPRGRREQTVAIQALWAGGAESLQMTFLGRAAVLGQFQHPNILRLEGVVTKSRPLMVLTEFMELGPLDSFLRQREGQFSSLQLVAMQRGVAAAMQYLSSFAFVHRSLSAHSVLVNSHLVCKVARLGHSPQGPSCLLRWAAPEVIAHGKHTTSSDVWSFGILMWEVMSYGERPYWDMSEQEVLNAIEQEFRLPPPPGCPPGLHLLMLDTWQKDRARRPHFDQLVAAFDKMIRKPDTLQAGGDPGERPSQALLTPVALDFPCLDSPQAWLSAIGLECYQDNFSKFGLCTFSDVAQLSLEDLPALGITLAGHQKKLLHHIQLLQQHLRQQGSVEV
The settings on record: kinase EPHB6; Published KINOMEscan; ref original PKIS2 published data; cited from earlier work.

Data set [2] concerns the target kinases (KINOMEscan panel) (Homo sapiens, UniProt P07948). The settings on record: Published KINOMEscan; ref original PKIS2 published data; cited from earlier work.
Data set [3] deals with T2, kinases (KINOMEscan panel) (Homo sapiens, UniProt Q12866).
T2 sequence (Q12866 21-999): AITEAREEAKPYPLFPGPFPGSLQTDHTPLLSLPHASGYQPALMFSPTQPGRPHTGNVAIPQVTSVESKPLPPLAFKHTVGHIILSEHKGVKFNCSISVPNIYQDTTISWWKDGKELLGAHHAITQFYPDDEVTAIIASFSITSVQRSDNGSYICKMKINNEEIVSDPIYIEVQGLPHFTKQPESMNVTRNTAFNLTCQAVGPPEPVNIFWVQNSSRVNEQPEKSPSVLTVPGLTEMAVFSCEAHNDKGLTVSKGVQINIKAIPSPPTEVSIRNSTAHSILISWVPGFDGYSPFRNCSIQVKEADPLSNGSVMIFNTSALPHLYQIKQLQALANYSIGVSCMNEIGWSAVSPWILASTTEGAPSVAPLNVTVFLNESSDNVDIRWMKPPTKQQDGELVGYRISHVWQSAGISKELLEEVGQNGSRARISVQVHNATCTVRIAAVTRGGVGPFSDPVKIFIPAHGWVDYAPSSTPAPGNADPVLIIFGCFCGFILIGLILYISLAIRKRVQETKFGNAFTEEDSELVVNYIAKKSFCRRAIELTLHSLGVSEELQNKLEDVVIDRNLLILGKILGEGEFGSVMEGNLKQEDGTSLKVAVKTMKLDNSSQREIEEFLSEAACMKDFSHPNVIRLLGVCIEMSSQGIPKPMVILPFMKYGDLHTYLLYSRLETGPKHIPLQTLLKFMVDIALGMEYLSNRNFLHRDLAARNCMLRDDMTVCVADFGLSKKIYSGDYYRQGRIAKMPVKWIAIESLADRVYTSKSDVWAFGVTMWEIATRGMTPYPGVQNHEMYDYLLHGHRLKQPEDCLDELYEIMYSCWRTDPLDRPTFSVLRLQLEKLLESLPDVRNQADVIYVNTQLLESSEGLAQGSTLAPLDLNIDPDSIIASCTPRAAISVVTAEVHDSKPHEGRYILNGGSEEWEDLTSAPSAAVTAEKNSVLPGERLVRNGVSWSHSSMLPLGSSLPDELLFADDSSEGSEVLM
The settings on record: kinase MERTK; Published KINOMEscan; ref original PKIS2 published data; cited from earlier work.

In data set [4] the target is kinases (KINOMEscan panel) (Homo sapiens, UniProt Q9Y463). The settings on record: kinase DYRK1B; Published KINOMEscan; ref original PKIS2 published data; cited from earlier work.
The target of data set [5] is kinases (KINOMEscan panel) (Homo sapiens, UniProt Q9Y4K4). The settings on record: kinase MAP4K5; Published KINOMEscan; ref original PKIS2 published data; cited from earlier work.
kinases (KINOMEscan panel) (Homo sapiens, UniProt Q9Y4K4), sequence (Q9Y4K4 whole entry): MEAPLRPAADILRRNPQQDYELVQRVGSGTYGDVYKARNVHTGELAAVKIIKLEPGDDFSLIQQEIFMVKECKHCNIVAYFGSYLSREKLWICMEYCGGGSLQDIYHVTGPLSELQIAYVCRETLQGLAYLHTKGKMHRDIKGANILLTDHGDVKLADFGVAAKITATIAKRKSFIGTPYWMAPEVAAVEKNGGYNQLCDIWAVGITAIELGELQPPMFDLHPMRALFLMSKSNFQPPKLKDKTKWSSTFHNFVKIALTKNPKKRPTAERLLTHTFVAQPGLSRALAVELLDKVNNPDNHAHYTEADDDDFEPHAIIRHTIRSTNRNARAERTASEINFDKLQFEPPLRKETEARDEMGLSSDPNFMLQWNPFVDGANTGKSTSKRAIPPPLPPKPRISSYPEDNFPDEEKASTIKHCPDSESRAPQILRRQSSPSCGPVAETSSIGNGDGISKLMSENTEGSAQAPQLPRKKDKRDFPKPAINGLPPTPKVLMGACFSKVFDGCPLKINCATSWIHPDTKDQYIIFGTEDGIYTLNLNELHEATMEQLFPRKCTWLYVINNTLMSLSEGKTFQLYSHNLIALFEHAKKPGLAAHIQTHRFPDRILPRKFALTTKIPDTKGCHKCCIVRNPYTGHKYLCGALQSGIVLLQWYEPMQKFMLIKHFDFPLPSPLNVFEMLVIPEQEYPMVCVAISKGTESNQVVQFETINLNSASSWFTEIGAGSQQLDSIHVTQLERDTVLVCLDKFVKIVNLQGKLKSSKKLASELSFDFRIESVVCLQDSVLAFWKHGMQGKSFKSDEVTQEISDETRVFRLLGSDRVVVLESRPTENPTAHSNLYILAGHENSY

kinases (KINOMEscan panel) (Homo sapiens, UniProt P07948), sequence (P07948 whole entry): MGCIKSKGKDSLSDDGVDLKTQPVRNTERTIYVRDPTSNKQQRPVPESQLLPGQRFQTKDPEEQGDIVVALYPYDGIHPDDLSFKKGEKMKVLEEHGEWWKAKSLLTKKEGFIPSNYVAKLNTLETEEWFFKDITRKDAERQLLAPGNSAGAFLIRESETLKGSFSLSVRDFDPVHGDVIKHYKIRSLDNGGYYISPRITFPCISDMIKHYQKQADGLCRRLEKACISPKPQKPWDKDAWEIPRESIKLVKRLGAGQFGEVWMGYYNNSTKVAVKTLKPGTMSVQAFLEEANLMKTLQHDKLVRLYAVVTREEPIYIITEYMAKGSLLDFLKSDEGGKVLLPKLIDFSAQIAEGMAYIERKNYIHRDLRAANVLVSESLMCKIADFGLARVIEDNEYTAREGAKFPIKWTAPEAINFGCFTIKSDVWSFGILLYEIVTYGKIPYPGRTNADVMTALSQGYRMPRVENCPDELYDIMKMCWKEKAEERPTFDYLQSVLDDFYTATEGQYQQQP
kinases (KINOMEscan panel) (Homo sapiens, UniProt Q9Y463), sequence (Q9Y463 whole entry): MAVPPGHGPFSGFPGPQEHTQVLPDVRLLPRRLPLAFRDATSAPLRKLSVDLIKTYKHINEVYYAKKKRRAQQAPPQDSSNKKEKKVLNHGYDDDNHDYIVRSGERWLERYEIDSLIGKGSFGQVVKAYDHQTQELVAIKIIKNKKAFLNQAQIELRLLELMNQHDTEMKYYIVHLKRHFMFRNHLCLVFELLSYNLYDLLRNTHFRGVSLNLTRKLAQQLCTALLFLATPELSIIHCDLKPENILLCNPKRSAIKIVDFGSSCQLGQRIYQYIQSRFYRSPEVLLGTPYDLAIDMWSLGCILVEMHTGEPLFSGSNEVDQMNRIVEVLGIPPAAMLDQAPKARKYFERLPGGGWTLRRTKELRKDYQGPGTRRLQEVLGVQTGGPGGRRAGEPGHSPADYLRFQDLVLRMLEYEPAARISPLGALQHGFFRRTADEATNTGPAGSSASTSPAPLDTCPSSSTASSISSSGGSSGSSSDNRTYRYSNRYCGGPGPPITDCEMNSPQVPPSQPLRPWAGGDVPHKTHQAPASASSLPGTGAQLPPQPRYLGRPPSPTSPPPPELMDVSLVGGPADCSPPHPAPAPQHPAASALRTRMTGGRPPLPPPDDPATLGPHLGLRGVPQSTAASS

On to `Cc1cccc(-c2nc(Nc3ccncc3)c3ccccc3n2)n1` [NK215], for which the “KINOMEscan EPHB6” value in data set [1] is listed as 0. Also, in data set [2], the “KINOMEscan LYN” value is reported as 0. Further, the “KINOMEscan MERTK” value in data set [3] was 9. The “KINOMEscan DYRK1B” value in data set [4] is 27. In addition, in data set [5], the “KINOMEscan MAP4K5” value is recorded as 0.
